Tests used:
Kaposi's sarcoma cells [1] = assay: Viability of KS cells (Live/Dead assay); assay type: cell-based; settings: KS cells treated with peptides at 12 ug/mL in DMEM without serum
Description: (§1) KS cells were plated in DMEM with 10% FBS in 96-well plates. Media was replaced with 100 uL of DMEM without serum and cells were treated with peptides at 12 ug/mL: The peptides utilized had two distinct disulfide links and are shown below. The other peptides utilized in the studies and methods for tumor studies are essentially as reported in Nature Medicine 5(9): 1032-1038, 1999, which is incorporated herein by reference in its entirety. Crude peptide was unpurified peptide composed monomer and dimer and other species-oxidized forms of the peptide.

Kaposi's sarcoma cells [2] = assay: Mitochondrial function in KS cells (WST-1 assay); assay type: cell-based; settings: KS cells treated with peptides at 12 ug/mL; for mitochondrial function (remaining) in treated KS cell culture: function reduced to
Description: as §1
In order to determine the decrease in mitochondrial function in tumor cells targeted with HK-1, which has the structure (CNGRC-GG-d(KLAKLAK)2)2 (SEQ ID NO: 9), Kaposi's sarcoma cells were treated with HK-1, with the corresponding monomeric homing conjugate CNGRC-GG-d(KLAKLAK)2 (SEQ ID NO: 20), with a crude preparation of the CNGRC homing peptide monomers, with an RGD peptide preparation, with a preparation including KLAKLAK (SEQ ID NO: 5) antimicrobial peptides, and with a CNGR control preparation.

mitochondrial membranes = settings: at a concentration of 10 μM; cited from earlier work

Row | Substance | cell death (Kaposi's sarcoma cells [1]) | reduction in mitochondrial function (Kaposi's sarcoma cells [2]) [%] | mitochondrial function (remaining) in treated KS cell culture (Kaposi's sarcoma cells [2]) | mitochondrial swelling (mitochondrial membranes)
1 | (CNGRC-GG-d(KLAKLAK)2)2 [HK-1] | ~50% | 63 | 37% | 
2 | CNGRC-GG-d(KLAKLAK)2 | approximately 10% | 34 | over 65% | 
3 | d(KLAKLAK)2 |  |  |  | marked mitochondrial swelling

From patent publication US20080188421A1, “Hunter-Killer Peptides and Methods of Use” (priority 2004, published 2008)
